Converted amounts (≈) assume the structure as drawn.

For assay [1], the system named is E. faecalis strain MMH594. Nature of the assay: C. elegans-E. faecalis liquid infection (curing) assay in 96-well plates, worm survival. The conditions noted are these: glp-4, sek-1 C. elegans infected with E. faecalis MMH594. The format is in vivo, Enterococcus faecalis. As for the experimental part: (§1) Worm survival was scored manually after 6 days of incubation. […] MICs were determined against E. faecalis strain MMH594 using 2-fold dilution in BHI media according to the broth microdilution protocol of the NCCLS (CLSI) (National Committee for Clinical Laboratory Standards, Approved Standard M7-A5; Methods for Dilution Antimicrobial Susceptibility Tests for Bacteria that Grow Aerobically, Villanova, Pa.: NCCLS (2000)).

Assay [2] concerns E. faecalis strain MMH594. Nature of the assay: MIC, 2-fold broth microdilution in BHI media (NCCLS). The format is cell-based, Enterococcus faecalis. The conditions noted are these: E30 value is at its aqueous solubility limit. The procedure:
as §1
On the technique in general: Dilution methods test growth across graded concentrations, often in twofold steps.

Assay [3] has as its system E. faecalis. Nature of the assay: Bacterial colonization of the nematode intestine (CFU per worm). The format is in vivo, Enterococcus faecalis. The following applies: 100% = 3.28 × 10^4 CFU/worm. As for the experimental part: Infected worms were washed three times with M9 buffer containing 1 mM sodium azide. Approximately 10 worms were transferred to a 2 ml microcentrifuge tube and the volume was brought to 250 μl. Fifty μl of buffer was removed and plated to determine the number of external CFU.

Assay [4] has as its system C. albicans MLR62. As to the kind of experiment: Fungal burden within C. elegans (cfu per worm). The assay is classed as in vivo, Candida albicans. The conditions noted are these: for concentration of Candida cfu in the nematodes: data not shown. The procedure: The number of C. albicans colony forming units in C. elegans was quantified based on the protocol detailed by Tang et al., Infect. Immun. 73:8219 (2005) and Garsin et al., Proc. Natl. Acad Sci. USA 98:10892 (2001) with a few modifications. C. albicans strain MLR62 lawns were prepared on BHI as described above. C. elegans glp-4; sek-1 worms were exposed to the lawns for 30 minutes and then moved to liquid media and incubated at 25° C. in the presence or absence of antifungal agents. At appropriate time points, 3 groups of 10 worms each were washed twice in 8 μl drops of M9 buffer on BHI agar plates, in order to remove surface Candida. Each group of 10 worms was then disrupted using a Pellet Pestle Motor (Kontes) and plated on YPD agar containing kanamycin (45 μg/ml), ampicillin (100 μg/ml), and streptomycin (100 μg/ml). The plates were incubated for 48 hours at 30′C and colonies were counted.

In assay [5] the test system is DAY185. The conditions noted are these: Candida strain DAY185; cited from earlier work.
In assay [6] the test system is C. krusei ATCC#6258. The following applies: cited from earlier work.
For assay [7], the system named is C. parapsilosis ATCC#22019. The conditions noted are these: cited from earlier work.
In assay [8] the test system is C. albicans strain MLR62. Nature of the assay: C. elegans liquid medium killing assay with established antifungals. The assay is classed as in vivo, Candida albicans. The procedure:
(§2) Candida strains were inoculated in 2 ml of YPD and grown at 30° C. for 24 hours. Lawns were prepared by spreading 10 μl of each culture on 35 mm tissue-culture plates (Falcon) containing solid brain heart infusion (BHI) media (Difco) with kanamycin (45 μg/ml), ampicillin (100 μg/ml), and streptomycin (100 μg/ml). The plates were incubated at 30′C for 24 hours followed by 25° C. for 24 hours. glp-4; sek-1 and glp-4 worms were grown at 15° C. until they reached the L2 stage, and then they were transferred to 25° C. for 24 h. N2 wild-type worms were grown at 15° C. for 72 h, until they reached the L4 stage. Approximately 100 worms were picked onto each lawn and allowed to feed for 30 minutes to 2 hours. The worms were washed off the plates with M9 buffer and allowed to crawl on unseeded BHI plates to remove yeast cells from their cuticles. Roughly 70-80 worms were then picked to wells in a six-well microtiter dish that contained 1.5 ml liquid medium of 79% M9 buffer, 20% BHI, 2 μM cholesterol and 90 μg/ml kanamycin. The plates were incubated at 25° C. overnight and then examined at 24-hour intervals for survival.
To develop a system that allows high throughput screening for antifungal compounds, we first evaluated whether established antifungals prolong the survival of nematodes infected with Candida spp. For this, we used different C. albicans isolates as well as non-albicans strains, including those used as reference strains by clinical microbiology laboratories ([…], N. C. F. C. L. Methods for antifungal disk diffusion susceptibility testing of yeasts; approved guideline M44-A. (National Committee for Clinical Laboratory Standards, Wayne, Pa., 2004)).

Assay [9] has as its system C. albicans ATCC#90028. The conditions noted are these: cited from earlier work.
The subject of assay [10] is C. albicans strain MLR62. As to the kind of experiment: C. elegans-Candida killing assay, compound library screen in 96-well plates. The assay is classed as in vivo, Candida albicans. The following applies: positive control of the screen; <25% alive in PBS. As for the experimental part:
For testing the efficacy of chemical compounds, C. albicans strain MLR62 was inoculated into 2 ml of YPD and grown at 30° C. for 24 hours; 10 μl of the culture was spread on 35-mm tissue-culture plates (Falcon) containing brain heart infusion (BHI) agar (Difco) with kanamycin (45 μg/ml), ampicillin (100 μg/ml), and streptomycin (100 μg/ml). The plates were incubated at 30° C. for 24 hours. C. elegans animals at the L4 developmental stage (grown as detailed above under C. elegans liquid medium killing assays) were transferred from a lawn of E. coli HB101 onto C. albicans lawns on BHI medium, incubated at 25° C. for 30 minutes, and then pipetted in 50 μl into 96-well plate wells that contained 100 μl liquid media (79% of M9 buffer, 20% BHI media, 2 μM cholesterol and 90 μg/ml kanamycin). C. elegans glp-4; sek-1 nematodes were pipetted into 96-well plates that contained compounds from chemical libraries. Library 1361 was assembled by Biomol and contains well-characterized compounds that affect many different aspects of cellular pathways. The NINDS custom collection (plates 501-503) was put together by MicroSource Discovery Systems for the National Institute of Neurological Disorders and Stroke (NINDS), the Huntington's Disease Society of America (HDSA), the Amyotrophic Lateral Sclerosis (ALS) Association, and the Hereditary Disease Foundation (HDF). It mostly contains FDA approved drugs. The Prestwick library (plate 1569) contains compounds that are known to be safe and bioactive in humans. The majority of the compounds are marketed drugs.
On day 6, nematodes were evaluated for survival, filament formation and optical density. The plates were incubated at 25° C. and examined on day 6 for survival with a Nikon SMZ645 dissecting microscope. In addition, images were obtained using a CellWorx High Content Cell Analysis System (Applied Precision) at 4× magnification. Dead worms were counted but not removed. […] Each compound was also scored by the number of dead worms in the well that developed hyphea. […] Compounds were categorized as having a minimal effect on filament formation if 25-75% of the dead worms developed hyphea.
Approximately 25 nematodes were used to analyze each chemical compound tested. Two controls were used in all plates. […] In this pilot screen, we considered a compound as a “hit” when survival in the compound well with was 50% and above of the median survival of the control wells. Depending on the compound library, the final concentration of the compounds was 33.33 μg/ml, 13.33 μg/ml, or […].

Assay [11] has as its system C. krusei ATCC#6258. The assay is classed as in vivo. The following applies: fluconazole 32 μg/ml, fluconazole-resistant strain. The procedure:
as §2
To develop a system that allows high throughput screening for antifungal compounds, we first evaluated whether established antifungals prolong the survival of nematodes infected with Candida spp. […]

The mark [12] stands for this setting: caspofungin 8 μg/ml, amphotericin B 16 μg/ml, fluconazole 32 μg/ml, FIG. 17A.

For `O=c1oc2ccccc2c(O)c1/C(=C/C(=N/Nc1ccccc1)c1ccc(-c2ccc(Br)cc2)cc1)c1ccccc1` [Compound G1], the “Therapeutic Concentration” value in assay [1] was found to be 25 µg/mL. Further, the “Fold Survival vs untreated” value in assay [1] (untreated = 24% survival) was 3.3. In assay [2], this compound yielded an MIC of 31.3 µg/mL (≈ 51 µM). Further, the “Amt. Colonization vs untreated” value in assay [3] amounted to 6%.

In the case of `C[C@@H]1[C@H](O)[C@@H](C)/C=C/C=C/C=C/C=C/C=C/C=C/C=C/[C@H](O[C@@H]2O[C@H](C)[C@@H](O)[C@H](N)[C@@H]2O)C[C@@H]2O[C@](O)(C[C@@H](O)C[C@@H](O)[C@H](O)CC[C@@H](O)C[C@@H](O)CC(=O)O[C@H]1C)C[C@H](O)[C@H]2C(=O)O` [amphotericin B], in assay [4], the “concentration of Candida cfu in the nematodes” value is listed as “significantly decreased”. The figures for the MIC in assay [5], in [6] and in [7] were 0.5 µg/mL (≈ 0.541 µM), “MIC: 2 μg/ml for amphotericin B^d,” and “MIC: 2 μg/ml for amphotericin B^d,”, respectively. The “prolongation of nematode survival” value in assay [8] (in vivo) is reported as “effective”.

Regarding `CC[C@H](C)C[C@H](C)CCCCCCCCC(=O)N[C@H]1C[C@@H](O)[C@@H](NCCN)NC(=O)[C@@H]2[C@@H](O)CCN2C(=O)[C@H]([C@H](O)CCN)NC(=O)[C@H]([C@H](O)[C@@H](O)c2ccc(O)cc2)NC(=O)[C@@H]2C[C@@H](O)CN2C(=O)[C@H]([C@@H](C)O)NC1=O` [caspofungin], the MIC was 1 μg/ml for caspofungin in assay [9], 2 µg/mL (≈ 1.83 µM) in assay [5], 0.5 to 2 µg/mL in [6] and 0.5 to 2 µg/mL in assay [7]. Besides, in assay [4] (8 μg/ml, untreated 170.8±63.5 cfu per worm, P<0.001), the “fungal burden, average colony-forming units” value is listed as 0.3±0.2 cfu per worm. The “nematode survival at day 6” value in assay [10] is greater than 75%. Further, in assay [8] (setting [12]), the “prolongation of nematode survival” value is given as “effective”. In addition, in assay [8] (nematode survival, P<0.0001), the “lowest effective concentration (effective at concentrations as low as)” value turned out to be 1 µg/mL.

As to `OC(Cn1cncn1)(Cn1cncn1)c1ccc(F)cc1F` [fluconazole], the “concentration of Candida cfu in the nematodes” value in [4] was “significantly decreased”. For the same compound, the MIC was 2 µg/mL (≈ 6.53 µM) in [5], 32 µg/mL (≈ 104 µM) in assay [6] and 2 µg/mL (≈ 6.53 µM) in [7]. In addition, the “effect on nematode survival” value in [11] is reported as “no effect”. Also, in assay [8] (setting [12]), the “prolongation of nematode survival” value is “effective”.

The values are drawn from patent US20170020900A1, “METHODS FOR SCREENING ANTIMICROBIAL AND ANTIVIRAL COMPOUNDS AND USES THEREOF” (The General Hospital Corporation, priority 2006, published 2017).
